Measurements as given in ChEMBL document CHEMBL1201862, “PubChem BioAssay data set” (2004).
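Values below derive from 48-hour exposures of cells grown in 96-well plates, with endpoints linearly interpolated between the two concentrations bracketing the appropriate inhibition level. GI50 marks 50% less growth.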 Activity calls are given as the source filed them. Cut-off read from the data, not from the text of the source: active = GI50 up to about 1.1 µM and inactive = higher.

Key:
Experiment in all cases: growth of human tumour cells (NCI), 48 h
[1] = tested on: NCI-H226
[2] = tested on: MDA-MB-231
[3] = tested on: MCF7
[4] = tested on: CAKI-1
[5] = tested on: HL-60
[6] = tested on: SNB-75
[7] = tested on: NCI-H23
[8] = tested on: RPMI-8226
[9] = tested on: OVCAR-5
[10] = tested on: A549
[11] = tested on: HOP-92
[12] = tested on: SR
[13] = tested on: BT-549
[14] = tested on: HT-29
[15] = tested on: IGROV-1
[16] = tested on: SK-MEL-28
[17] = tested on: SF-539
[18] = tested on: SF-295
[19] = tested on: SN12C
[20] = tested on: ACHN
[21] = tested on: 786-0
[22] = tested on: RXF 393
[23] = tested on: UACC-257
[24] = tested on: HCC 2998
[25] = tested on: MDA-MB-435
[26] = tested on: UO-31
[27] = tested on: M14
[28] = tested on: Malme-3M
[29] = tested on: COLO 205
[30] = tested on: PC-3
[31] = tested on: NCI-H522
[32] = tested on: A498
[33] = tested on: UACC-62
[34] = tested on: HCT-116
[35] = tested on: U-251
[36] = tested on: SF-268
[37] = tested on: T47D
[38] = tested on: SK-MEL-2
[39] = tested on: NCI-H460
[40] = tested on: DU-145
[41] = tested on: LOX IMVI
[42] = tested on: EKVX
[43] = tested on: SK-MEL-5
[44] = tested on: CCRF-CEM
[45] = tested on: SK-OV-3
[46] = tested on: HCT-15
[47] = tested on: MDA-N
[48] = tested on: Hs-578T
[49] = tested on: K562
[50] = tested on: KM12
[51] = tested on: TK-10
[52] = tested on: OVCAR-8
[53] = tested on: MOLT-4
[54] = tested on: SNB-19
[55] = tested on: OVCAR-4
[56] = tested on: NCI/ADR-RES
[57] = tested on: HOP-62
[58] = tested on: SW-620
[59] = tested on: OVCAR-3
[60] = tested on: DLD-1
[61] = tested on: DMS-273
[62] = tested on: M19-MEL
[63] = tested on: DMS-114
[64] = tested on: LXFL 529
[65] = tested on: KM-20L2
[66] = tested on: HOP-18
[67] = tested on: SNB-78

## CCOC(=O)N1CCN(c2ccc3c(C)cc(C)nc3n2)CC1
[1]
  GI50: > 100 µM (inactive)
[2]
  GI50: > 100 µM (inactive)
[3]
  GI50: > 100 µM (inactive)
[4]
  GI50: > 100 µM (inactive)
[5]
  GI50: > 100 µM (inactive)
[6]
  GI50: > 100 µM (inactive)
[7]
  GI50: > 100 µM (inactive)
[8]
  GI50: > 100 µM (inactive)
[9]
  GI50: > 100 µM (inactive)
[10]
  GI50: > 100 µM (inactive)
[11]
  GI50: > 100 µM (inactive)
[12]
  GI50: > 100 µM (inactive)
[13]
  GI50: > 100 µM (inactive)
[14]
  GI50: > 100 µM (inactive)
[15]
  GI50: > 100 µM (inactive)
[16]
  GI50: > 100 µM (inactive)
[17]
  GI50: > 100 µM (inactive)
[18]
  GI50: > 100 µM (inactive)
[19]
  GI50: > 100 µM (inactive)
[20]
  GI50: > 100 µM (inactive)
[21]
  GI50: > 100 µM (inactive)
[22]
  GI50: > 100 µM (inactive)
[23]
  GI50: > 100 µM (inactive)
[24]
  GI50: > 100 µM (inactive)
[25]
  GI50: > 100 µM (inactive)
[26]
  GI50: > 100 µM (inactive)
[27]
  GI50: > 100 µM (inactive)
[28]
  GI50: > 100 µM (inactive)
[29]
  GI50: > 100 µM (inactive)
[30]
  GI50: > 100 µM (inactive)
[31]
  GI50: > 100 µM (inactive)
[32]
  GI50: > 100 µM (inactive)
[33]
  GI50: > 100 µM (inactive)
[34]
  GI50: > 100 µM (inactive)
[35]
  GI50: > 100 µM (inactive)
[36]
  GI50: > 100 µM (inactive)
[37]
  GI50: > 100 µM (inactive)
[38]
  GI50: > 100 µM (inactive)
[39]
  GI50: > 100 µM (inactive)
[40]
  GI50: > 100 µM (inactive)
[41]
  GI50: > 100 µM (inactive)
[42]
  GI50: > 100 µM (inactive)
[43]
  GI50: > 100 µM (inactive)
[44]
  GI50: > 100 µM (inactive)
[45]
  GI50: > 100 µM (inactive)
[46]
  GI50: > 100 µM
[47]
  GI50: > 100 µM (inactive)
[48]
  GI50: > 100 µM (inactive)
[49]
  GI50: > 100 µM (inactive)
[50]
  GI50: > 100 µM (inactive)
[51]
  GI50: > 100 µM (inactive)
[52]
  GI50: > 100 µM (inactive)
[53]
  GI50: > 100 µM (inactive)
[54]
  GI50: > 100 µM (inactive)
[55]
  GI50: > 100 µM (inactive)
[56]
  GI50: > 100 µM (inactive)
[57]
  GI50: > 100 µM (inactive)
[58]
  GI50: > 100 µM (inactive)
[59]
  GI50: > 100 µM (inactive)

## Cc1ccc(O)c(/N=N/c2ccc(S(=O)(=O)O)cc2)n1
[60]
  GI50: > 100 µM (inactive)
[4]
  GI50: > 100 µM (inactive)
[5]
  GI50: > 100 µM (inactive)
[7]
  GI50: > 100 µM (inactive)
[8]
  GI50: > 100 µM (inactive)
[10]
  GI50: > 100 µM (inactive)
[11]
  GI50: > 100 µM (inactive)
[15]
  GI50: > 100 µM (inactive)
[61]
  GI50: > 100 µM (inactive)
[16]
  GI50: > 100 µM (inactive)
[17]
  GI50: > 100 µM (inactive)
[18]
  GI50: > 100 µM (inactive)
[19]
  GI50: > 100 µM (inactive)
[62]
  GI50: > 100 µM (inactive)
[20]
  GI50: > 100 µM (inactive)
[21]
  GI50: > 100 µM (inactive)
[63]
  GI50: > 100 µM (inactive)
[22]
  GI50: > 100 µM (inactive)
[26]
  GI50: > 100 µM (inactive)
[27]
  GI50: > 100 µM (inactive)
[29]
  GI50: > 100 µM (inactive)
[31]
  GI50: > 100 µM (inactive)
[32]
  GI50: > 100 µM (inactive)
[33]
  GI50: > 100 µM (inactive)
[34]
  GI50: > 100 µM (inactive)
[64]
  GI50: > 100 µM (inactive)
[35]
  GI50: > 100 µM (inactive)
[36]
  GI50: > 100 µM (inactive)
[39]
  GI50: > 100 µM (inactive)
[41]
  GI50: > 100 µM (inactive)
[42]
  GI50: 21 µM (inactive)
[43]
  GI50: > 100 µM (inactive)
[44]
  GI50: > 100 µM (inactive)
[65]
  GI50: > 100 µM (inactive)
[45]
  GI50: > 100 µM (inactive)
[46]
  GI50: > 100 µM
[49]
  GI50: > 100 µM (inactive)
[66]
  GI50: > 100 µM (inactive)
[51]
  GI50: > 100 µM (inactive)
[52]
  GI50: > 100 µM (inactive)
[53]
  GI50: > 100 µM (inactive)
[58]
  GI50: > 100 µM (inactive)

## c1ccc2nc(-c3ccc4c(c3)OCO4)ccc2c1
[1]
  GI50: 21.6 µM (inactive)
[4]
  GI50: 28.8 µM (inactive)
[5]
  GI50: 29.1 µM (inactive)
[6]
  GI50: 22.5 µM (inactive)
[7]
  GI50: 47.1 µM (inactive)
[9]
  GI50: 48.5 µM (inactive)
[10]
  GI50: 49.2 µM (inactive)
[11]
  GI50: 2.8 µM (inactive)
[12]
  GI50: 16.7 µM (inactive)
[14]
  GI50: 24.7 µM (inactive)
[61]
  GI50: 26.2 µM (inactive)
[16]
  GI50: > 100 µM (inactive)
[17]
  GI50: 56.9 µM (inactive)
[18]
  GI50: 46.7 µM (inactive)
[19]
  GI50: 43.2 µM (inactive)
[20]
  GI50: 26.5 µM (inactive)
[21]
  GI50: 76.7 µM (inactive)
[63]
  GI50: 23.4 µM (inactive)
[22]
  GI50: 15.2 µM (inactive)
[23]
  GI50: 15.6 µM (inactive)
[24]
  GI50: 38.3 µM (inactive)
[26]
  GI50: 20 µM (inactive)
[27]
  GI50: 54.2 µM (inactive)
[28]
  GI50: 18 µM (inactive)
[29]
  GI50: 74.6 µM (inactive)
[31]
  GI50: 31.8 µM (inactive)
[64]
  GI50: 22.5 µM (inactive)
[35]
  GI50: 53.6 µM (inactive)
[36]
  GI50: 37.7 µM (inactive)
[38]
  GI50: 41.3 µM (inactive)
[39]
  GI50: 34.5 µM (inactive)
[41]
  GI50: 26.1 µM (inactive)
[42]
  GI50: 24.9 µM (inactive)
[67]
  GI50: 77.6 µM (inactive)
[65]
  GI50: 39.6 µM (inactive)
[50]
  GI50: 24.7 µM (inactive)
[51]
  GI50: 64 µM (inactive)
[52]
  GI50: 43.5 µM (inactive)
[54]
  GI50: 73.5 µM (inactive)
[55]
  GI50: 24.8 µM (inactive)
[57]
  GI50: 22 µM (inactive)
[58]
  GI50: 77.6 µM (inactive)
[59]
  GI50: 26.4 µM (inactive)
